Assay results: ChEMBL document CHEMBL2086263, “Synthesis and SAR studies of 3-allyl-4-prenyloxyaniline amides as potent 15-lipoxygenase inhibitors” (Bioorg Med Chem, 2012)

Experiments:
[1] = Inhibition of soybean 15-lipoxygenase using linoleic acid as substrate incubated for 5 mins prior to substrate addition measured after 7 mins by DMAB-MBTH method; set-up: species or system Glycine max
[2] = test system: Radical scavenging activity; experiment: Antioxidant activity assessed as inhibition of DPPH radical scavenging activity after 30 mins by spectrophotometry; assay type: functional

Row | Structure (SMILES) | IC50 [1] | IC50 [2]
1 | C=CCOc1ccc(NC(=O)C23CC4CC(CC(C4)C2)C3)cc1CC=C | 9.8 µM | 
2 | C=CCOc1ccc(NC(=O)C2CCCCC2)cc1CC=C | 18.5 µM | 
3 | C=CCOc1ccc(NC(=O)C2CCCC2)cc1CC=C | 58 µM | 
4 | C=CCOc1ccc(NC(=O)C2CCC2)cc1CC=C | 19.6 µM | 
5 | C=CCOc1ccc(NC(=O)C2CC2)cc1CC=C | 54.1 µM | 
6 | C=CCOc1ccc(NC(C)=O)cc1CC=C | 67.8 µM | 
7 | C=CCc1cc(NC(=O)C23CC4CC(CC(C4)C2)C3)ccc1OC/C=C(\C)CC/C=C(\C)CCC=C(C)C | 0.69 µM | 114 µM
8 | C=CCc1cc(NC(=O)C2CCCCC2)ccc1OC/C=C(\C)CC/C=C(\C)CCC=C(C)C | 5.2 µM | 529 µM
9 | C=CCc1cc(NC(=O)C2CCCC2)ccc1OC/C=C(\C)CC/C=C(\C)CCC=C(C)C | 35.7 µM | 461 µM
10 | C=CCc1cc(NC(=O)C2CCC2)ccc1OC/C=C(\C)CC/C=C(\C)CCC=C(C)C | 2.1 µM | 140 µM
11 | C=CCc1cc(NC(=O)C2CC2)ccc1OC/C=C(\C)CC/C=C(\C)CCC=C(C)C | 16.5 µM | 8.9 µM
12 | C=CCc1cc(NC(C)=O)ccc1OC/C=C(\C)CC/C=C(\C)CCC=C(C)C | 24.8 µM | 225 µM
13 | C=CCc1cc(NC(=O)C23CC4CC(CC(C4)C2)C3)ccc1OC/C=C(\C)CCC=C(C)C | 3.6 µM | 121 µM
14 | C=CCc1cc(NC(=O)C23CC4CC(CC(C4)C2)C3)ccc1OCC=C(C)C | 10.3 µM | 105 µM
15 | Cc1nc(N2CCN(C)CC2)nc2c1Nc1ccccc1S2 | 28.2 µM | 
16 | C=CCOc1ccc(NC(=O)C23CC4CC(CC(C4)C2)C3)cc1 | 27.8 µM | 
17 | O=C(O)/C=C/c1ccc(O)c(O)c1 [CAFFEIC ACID] | 37.1 µM | 
18 | CC(Cc1ccc(O)c(O)c1)C(C)Cc1ccc(O)c(O)c1 (stereo unspecified) [NORDIHYDROGUAIARETIC ACID] |  | 6.2 µM
